This note sets out measurements from PMC11609934, “Exploration and characterization of the antimalarial activity of cyclopropyl carboxamides that target the mitochondrial protein, cytochrome b” (European Journal of Medicinal Chemistry, 2024).

Like-named read-outs stand apart in the source and are kept apart here.

What is called EC50 is the concentration that produces a half-maximal response.

In data set [1] the test system is P. falciparum 3D7 parasites. Put plainly: P. falciparum 3D7 asexual stage LDH assay (72 h). The format is cell-based, Plasmodium falciparum. The settings on record: Plasmodium falciparum, read-out: Pf 3D7 EC50 (SD). In outline: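 Asexual P. falciparum 3D7 parasites were grown for 72 h over a 10-point, 3-fold series starting at 1 μM in 0.1% DMSO, with 100 nM chloroquine as negative growth control. After freeze-thaw, parasite LDH was read at 650 nm, and EC50 came from a variable-slope sigmoidal fit.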

For data set [2], the system named is W466-resistant populations. Put plainly: 72 h growth assay against W466-resistant populations. The settings on record: for EC50: Plasmodium falciparum. The class given is cell-based, Plasmodium falciparum. An excerpt: To determine the mechanism of action of the cyclopropyl carboxamide series, a forward genetic resistance study was undertaken on the two hit compounds W466 (1) and W499 (2).
The structures of W466 (1) and W499 (2) are slightly different although they appear to belong to the same structural class. To confirm if W466 (1) and W499 (2) may have the same molecular target, W466 (1) and W499 (2) were each evaluated for cross resistance against their respective resistant populations from the pulsed forward genetic study (Fig. 2).

The test system of another data set is mitochondrial ETC. Put plainly: P. falciparum oxygen consumption rate (OCR) assay (Seahorse XFe96). The format is cell-based, Plasmodium falciparum. The settings on record: compounds 5 μM. The procedure: To provide further evidence to support the cyclopropyl carboxamide series targeting cyt b, an oxygen consumption rate (OCR) assay was performed using a Seahorse XFe96 Flux Analyzer. The primary role of the mitochondria ETC is to produce ATP oxidative phosphorylation, and thus the oxygen consumption directly quantifies mitochondrial ETC activity. In this assay, malate, which is a substrate of malate quinone dehydrogenase (MQD), was added to provide a base line of oxygen consumption at approximately 50 pmol/min (Fig. 4). […] Finally, NaN3 was added to inhibit complex IV to bring the OCR back to basal levels.
Fig. 4 P. falciparum oxygen consumption rate (OCR) assay. Data represent the means and SDs of 3 technical replicates. Time points and reagent injections were as follows, 1. First 5 timepoints measured the basal level of malate-dependent OCR; 2. Compounds (5 μM) were injected independently (indicated by arrow), and OCR measured for 8-timepoints; 3. TMPD (a cytochrome c electron donor) was injected, and OCR measured for 5 time points; 4. NaN3 (a complex IV inhibitor) was then added, and OCR measured for 5 time points.
ETC Biosensor Assay. This assay was performed as previously described. Briefly, 3 × 10^8 trophozoite infected RBCs were purified using the SuperMACS II separator (Miltenyi Biotec, Germany). The trophozoite-stage parasites were released from erythrocytes by treating them with 0.05 % (w/v) pre-warmed saponin in phosphate-buffered saline (PBS) at 37 °C for 3 min. The cells were washed with pre-warmed PBS, three times. […] The cells were measured for oxygen consumption rate (OCR) using Seahorse XFe96 flux analyzer (Agilent). The OCR was assessed for five cycles of 20 s mixing, 1 min waiting, 2.5 min measuring to establish baseline OCR before any substrate injections, for eight cycles of 20 s mixing, 1 min waiting followed by 2.5 min measuring after inhibitor injection from port A and for five cycles of 20 s mixing 1 min waiting, 2.5 min measuring after TMPD, and NaN3, injections.

Data set [3] concerns P. berghei ANKA parasites. Put plainly: P. berghei 4-day mouse model. The format is in vivo, Plasmodium berghei. The procedure: The 4-day P. berghei mouse model is used to determine the preliminary in vivo efficacy of antimalarials at an early stage of optimization. To determine if cyclopropyl carboxamide series could reduce asexual blood stage infection, we evaluated representative compounds WJM280 (108) and analog 109 in the 4-day P. berghei mouse model. In this model, mice were infected P. berghei asexual stage parasites, and then 2 h after the infection, WJM280 (108) and analog 109 at 50 mg/kg and artesunate at 30 mg/kg were administered by oral gavage. The same compound doses were administered again, 24, 48, and 72 h post infection. Parasitemia was then quantified by preparing blood smears and visualizing by microscopy across days 2, 3, and 4. […] The inability of these compounds to reduce parasitemia was attributed to their high metabolic turnover, which is a characteristic that needs improving on further development of the cyclopropyl carboxamide class.
P. berghei 4-day Mouse Model. This model was conducted as previously described.

For the molecule `O=C(NC1CC1)c1ccc(CN(Cc2ccc(Cl)cc2Cl)C2CC2)cc1` [W499 (2)], the concentration for a half-maximal effect (EC50) was 170 nM in data set [1] (3D7 / DSM 265, parent 3D7 for resistant populations, LDH assay, 3 experiments (SYBR-green for DSM265)); 220 to 280 nM in data set [2] (read-out: EC50 against W466-resistant parasites); 283 nM in data set [2] (read-out: W466-resistant populations EC50 (SD) #1); 243 nM in data set [2] (read-out: W466-resistant populations EC50 (SD) #2); 215 nM in data set [2] (read-out: W466-resistant populations EC50 (SD) #3). The “fold shift in EC50 against W466-resistant populations compared to wildtype 3D7” value in data set [2] is reported as 2 fold. Besides, the “effect on malate-dependent oxygen consumption rate (OCR)” value with mitochondrial ETC is listed as “reduced the OCR to the same level as ATQ”.
Turning to `CCCN(Cc1ccc(C(=O)NC2CC2)cc1)Cc1ccc(C(F)(F)F)cc1` [WJM280 (108), N-Cyclopropyl-4-((propyl(4-(trifluoromethyl)benzyl)amino)methyl)benzamide], in data set [1] (3D7, 72 h, LDH activity of P. falciparum 3D7 parasites over 72 h, means and SDs, three or more experiments), the EC50 was determined as 40 nM. For the same molecule, the “body weights of mice” value in data set [3] (50 mg/kg q.d. oral, 4 days) is listed as “remained unchanged”. Besides, the “% parasitemia” value in data set [3] (mice, day 4, oral gavage q.d. x4, 50 mg/kg (ART 30 mg/kg)) was 81%. The “% reduction in parasitemia” value in data set [3] (versus vehicle control, mice, day 4, oral gavage q.d. x4, 50 mg/kg (ART 30 mg/kg)) stood at 19%.
